The values that follow come from ChEMBL document CHEMBL4725391, “Discovery and Optimization of Novel SUCNR1 Inhibitors: Design of Zwitterionic Derivatives with a Salt Bridge for the Improvement of Oral Exposure” (J Med Chem, 2020).

Activity calls are given as the source filed them. The rule behind the calls is not given here.

Data set [1] in a line: Octanol-water distribution coefficient, log D of the compound by shake flask method. It is filed as physicochemical.
Data set [2] can be described thus: Permeability of compound by PAMPA assay. It is filed as ADME.
In the next data set the target is T1, Succinate receptor 1 (Homo sapiens, UniProt Q9BXA5).
T1 sequence (Q9BXA5 whole entry): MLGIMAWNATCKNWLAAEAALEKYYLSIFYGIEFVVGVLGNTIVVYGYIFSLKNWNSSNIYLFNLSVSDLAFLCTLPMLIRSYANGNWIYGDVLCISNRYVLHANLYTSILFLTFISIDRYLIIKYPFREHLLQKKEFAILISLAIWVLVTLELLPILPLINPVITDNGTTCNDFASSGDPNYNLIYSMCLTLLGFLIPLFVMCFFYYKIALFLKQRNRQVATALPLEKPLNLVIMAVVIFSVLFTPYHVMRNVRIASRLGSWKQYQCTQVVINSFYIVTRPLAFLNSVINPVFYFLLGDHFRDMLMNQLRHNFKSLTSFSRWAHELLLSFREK
The data set is described as follows: Antagonist activity at human SUCNR1 expressed in human CHEM1 cells incubated for 60 mins in presence of [35S]GTPgammaS by scintillation proximity assay. It is filed as functional, cell-based, Chem-1.

The nature of data set [3]: Intrinsic clearance in rat liver microsomes. It is filed as ADME, Microsome. The settings on record: read-out: CLH.
The nature of data set [4]: Oral bioavailability in C57BL/6 mouse measured after 0.25 to 24 hrs by LC-MS/MS analysis. It is filed as ADME, organism-based. The settings on record: in vivo, time 0.25-24 hrs.
Data set [5] is described as follows: Dose normalized AUC in C57BL/6 mouse at 3 mg/kg, po measured after 0.25 to 24 hrs by LC-MS/MS analysis. It is filed as ADME, organism-based. Conditions: in vivo, time 0.25-24 hrs.
A short description of data set [6]: Clearance in C57BL/6 mouse at 1 mg/kg, iv administered as bolus dose measured after 0.083 to 24 hrs by LC-MS/MS analysis. It is filed as ADME, organism-based. Conditions: in vivo, time 0.083-24 hrs.
Data set [7] can be described thus: Protein binding in human plasma at 5 uM incubated for 4 hrs by LC-MS/MS analysis. The settings on record: read-out: PPB (converted). Type of data set: ADME, cell-free.
The nature of data set [8]: Protein binding in C57BL/6 mouse plasma at 5 uM incubated for 4 hrs by LC-MS/MS analysis. Conditions: read-out: PPB (converted). It is filed as ADME, cell-free.
Data set [9] in a line: Ionization constant (acid), pKa of the compound by UV metric assay. It is filed as physicochemical.
Data set [10] can be described thus: Ionization constant (base), pKa of the compound. It is filed as physicochemical.
Data set [11] in a line: Dose normalized AUC in C57BL/6 mouse at 10 mg/kg, po measured after 0.25 to 24 hrs by LC-MS/MS analysis. It is filed as ADME, organism-based. The settings on record: in vivo, time 0.25-24 hrs.
Data set [12] has as its target T2, Succinate receptor 1 (Mus musculus) (UniProt Q99MT6).
T2 sequence (whole entry): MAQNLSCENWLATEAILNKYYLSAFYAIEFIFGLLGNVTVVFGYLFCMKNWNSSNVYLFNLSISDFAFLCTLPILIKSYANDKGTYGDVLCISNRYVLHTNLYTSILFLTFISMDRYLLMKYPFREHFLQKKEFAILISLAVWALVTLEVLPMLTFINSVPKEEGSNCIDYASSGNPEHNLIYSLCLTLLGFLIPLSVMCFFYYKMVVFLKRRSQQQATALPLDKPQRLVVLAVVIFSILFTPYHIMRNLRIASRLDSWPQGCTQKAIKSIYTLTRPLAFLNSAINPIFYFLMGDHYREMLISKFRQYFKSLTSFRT
As to the kind of experiment: Antagonist activity at mouse SUCNR1 100 uM.

Data set [13] deals with T3, Succinate receptor 1 (Rattus norvegicus) (UniProt Q6IYF9).
T3 sequence (whole entry): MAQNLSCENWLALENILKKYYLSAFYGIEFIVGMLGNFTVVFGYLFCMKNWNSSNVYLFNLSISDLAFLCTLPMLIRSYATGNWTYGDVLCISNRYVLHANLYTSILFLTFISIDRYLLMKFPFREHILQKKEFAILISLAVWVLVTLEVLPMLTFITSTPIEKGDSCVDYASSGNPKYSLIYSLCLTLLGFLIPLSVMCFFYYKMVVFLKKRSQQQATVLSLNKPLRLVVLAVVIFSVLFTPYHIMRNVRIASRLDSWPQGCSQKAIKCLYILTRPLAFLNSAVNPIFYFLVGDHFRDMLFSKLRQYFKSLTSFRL
The data set is described as follows: Antagonist activity at rat SUCNR1 expressed in CHO-K1 cell membranes at 100 uM incubated for 60 mins in presence of [35S]GTPgammaS by scintillation proximity assay relative to control. Type of data set: functional. The settings on record: filed as antagonist. On the technique in general: GTPγS is a poorly hydrolysed GTP analogue; its binding reports G protein activation.

Data set [14] is described as follows: Oral bioavailability in C57BL/6 mouse at 10 mg/kg measured after 0.25 to 24 hrs by LC-MS/MS analysis. Type of data set: ADME, organism-based. The settings on record: in vivo, time 0.25-24 hrs.
For data set [15], the target named is T4, Succinate receptor 1 (Homo sapiens) (UniProt Q9BXA5).
T4 sequence (whole entry): T1 sequence (Q9BXA5 whole entry)
The data set is described as follows: Antagonist activity at human SUCNR1 expressed in human CHEM1 cell membranes at 100 uM incubated for 60 mins in presence of [35S]GTPgammaS by scintillation proximity assay. Type of data set: functional. The settings on record: Chem-1.

The target of another data set is Complement factor D (Homo sapiens, UniProt P00746). As to the kind of experiment: Inhibition of recombinant human CFD expressed in Escherichia coli incubated up to 2 hrs by TR-FRET assay. (TR-FRET usually uses a lanthanide donor and a delayed reading to cut background.)
In a further data set the target is Coagulation factor XI (Homo sapiens, UniProt P03951). As to the kind of experiment: Inhibition of human factor 11a by TR-FRET assay.
Coagulation factor XI, sequence (P03951 19-387 limits assumed): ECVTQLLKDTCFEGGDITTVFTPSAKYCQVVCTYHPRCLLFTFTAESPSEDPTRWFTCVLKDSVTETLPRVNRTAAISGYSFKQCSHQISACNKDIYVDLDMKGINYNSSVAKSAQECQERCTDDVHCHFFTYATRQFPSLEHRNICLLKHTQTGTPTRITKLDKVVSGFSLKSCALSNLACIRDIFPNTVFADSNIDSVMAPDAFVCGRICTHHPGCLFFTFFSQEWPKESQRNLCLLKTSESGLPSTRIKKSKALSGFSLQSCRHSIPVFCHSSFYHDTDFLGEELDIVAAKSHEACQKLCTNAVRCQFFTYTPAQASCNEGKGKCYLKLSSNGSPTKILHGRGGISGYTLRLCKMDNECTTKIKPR
Coagulation factor XI, sequence (P03951 388-625 limits assumed): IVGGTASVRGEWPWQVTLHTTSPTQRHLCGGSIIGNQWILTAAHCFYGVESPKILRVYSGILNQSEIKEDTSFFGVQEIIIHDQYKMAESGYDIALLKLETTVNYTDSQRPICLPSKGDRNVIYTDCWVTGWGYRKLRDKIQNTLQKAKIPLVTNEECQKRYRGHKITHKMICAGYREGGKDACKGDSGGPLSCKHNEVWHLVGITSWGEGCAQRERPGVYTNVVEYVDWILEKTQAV

Complement factor D, sequence (P00746 whole entry): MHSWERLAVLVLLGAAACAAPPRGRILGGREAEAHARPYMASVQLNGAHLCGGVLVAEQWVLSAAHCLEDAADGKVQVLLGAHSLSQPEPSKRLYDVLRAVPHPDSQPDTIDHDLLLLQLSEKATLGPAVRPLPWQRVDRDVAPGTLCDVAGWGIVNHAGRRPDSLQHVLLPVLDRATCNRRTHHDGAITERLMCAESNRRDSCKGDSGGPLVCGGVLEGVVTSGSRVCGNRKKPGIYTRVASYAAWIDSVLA

By logD is commonly meant lipophilicity at a set pH, counting ionised and neutral species. A lower logD goes with lower lipophilicity. Consider `O=C(O)Cc1ccccc1NC(=O)c1cccc(-c2ccc(Cl)c(OC3CNC3)c2)c1`, for which the logD in data set [1] came to 2.6. Also, in data set [2], the “log(permeability)” value was -5.2.
In general, IC50 refers to the concentration that inhibits the measured activity by half. Consider `O=C(O)CC(NC(=O)c1cccc(-c2ccc(Cl)cc2)c1)c1cccnc1` (configuration not stated), for which, at Succinate receptor 1, the 50% inhibitory concentration (IC50) came out at 32 µM. Moreover, the logD in [1] was 0.9. Also, in [2], the “log(permeability)” value is listed as -5.3. In addition, in data set [3], the microsomal CLint came out at 25 µL/min/mg.
By clearance is commonly meant a measure of how efficiently the substance is removed, as volume per time. Turning to `O=C(O)Cc1cc(F)ccc1NC(=O)c1cccc(-c2ccc(Cl)c(O[C@@H]3CCCNC3)c2F)c1`, the “log(permeability)” value in [2] is given as -4.9. Also, in data set [4], the bioavailability turned out to be 93%. The molecule further displayed an AUC/dose in data set [5] of 26100 nmol·h/L. In addition, the clearance in data set [6] was 1.2 mL/min/kg.
The molecule `O=C(O)Cc1ccccc1NC(=O)c1cccc(-c2ccc(Cl)c(OC3CCNC3)c2)c1` (configuration not stated) showed a pH-dependent lipophilicity (logD) in data set [1] of 2.8. The “log(permeability)” value in [2] is -5.3.
On to `O=C(O)Cc1ccccc1NC(=O)c1cccc(-c2ccc(Cl)c(O[C@H]3CCCNC3)c2)c1F`, for which the fraction unbound at 4 h, 5 µM in data set [7] was 0.014; in data set [8] it was 0.003.
In general, pKa refers to the pH at which an ionisable group is half protonated. The low end stands for a stronger acid or weaker base, the high end for a weaker acid or stronger base. With `O=C(O)Cc1ccccc1NC(=O)c1cccc(-c2ccc(Cl)c(OC3CCNCC3)c2)c1`, the IC50 on Succinate receptor 1 was 0.14 µM. This molecule also displayed a logD in [1] of 2.5. For the same molecule, in data set [2], the “log(permeability)” value is -5.4. The pKa in data set [9] was determined as 4.1; in data set [10], 9.9.
For the molecule `O=C(O)Cc1ccccc1NC(=O)c1cccc(-c2ccc(Cl)c(O[C@@H]3CCCNC3)c2F)c1`, in [2], the “log(permeability)” value was -5. Further, the bioavailability in data set [4] turned out to be 81%. The molecule also showed an AUC/dose in data set [5] of 2353 nmol·h/L. This molecule also displayed a clearance in data set [6] of 12 mL/min/kg.
As to `NCc1cccc(-c2cccc(C(=O)Nc3ccccc3CC(=O)O)c2)c1`, at Succinate receptor 1, the IC50 came to 27 µM. Further, the “log(permeability)” value in data set [2] is under -5.3. Besides, the figures for the pKa in [9] and in [10] were 4 and 9.5, respectively. Besides, the AUC/dose in [11] was 206 nmol·h/L.
On to `O=C(O)Cc1cc(F)ccc1NC(=O)c1cccc(-c2cc(O[C@@H]3CCCNC3)c(Cl)cc2F)c1`, for which the “log(permeability)” value in data set [2] is on record as -4.4. Also, the bioavailability in data set [4] amounted to 137%. In addition, the AUC/dose in [5] stood at 5737 nmol·h/L. In data set [6], the clearance worked out at 8 mL/min/kg.
With `O=C(O)Cc1ccccc1NC(=O)c1cccc(-c2ccc(Cl)cc2)c1`, in data set [7], the fraction unbound at 4 h, 5 µM was under 0.01. The IC50 on Succinate receptor 1 is 1.3 µM. This molecule displayed a logD in data set [1] of 1.9. In addition, the “log(permeability)” value in [2] is given as -3.8.
The molecule `O=C(O)Cc1ccccc1NC(=O)c1cccc(-c2ccc(Cl)cc2)c1F` displayed a log distribution coefficient (logD) in [1] of 1.4. Further, the “log(permeability)” value in [2] was -3.6. Moreover, the bioavailability in data set [4] worked out at 95%. In [5], this molecule had an AUC/dose of 7814 nmol·h/L. In data set [6], this molecule came in with a clearance of 10 mL/min/kg.
For orientation: inhibition means the share of the control response that was lost under treatment. Consider `O=C(O)Cc1cc(F)ccc1NC(=O)c1cccc(-c2cc(O[C@@H]3CCCNC3)c(Cl)cc2F)c1F`, for which the IC50 on Succinate receptor 1 is 0.088 µM. In addition, the “log(permeability)” value in data set [2] was -5.1. For the same molecule, in data set [4], the bioavailability stood at 74%. The AUC/dose in data set [5] stood at 37000 nmol·h/L. The same molecule gave a clearance in data set [6] of 0.6 mL/min/kg. Also, the inhibition in data set [12] was determined as 23%; in [13], 56%.
Consider `CN1CCN(Cc2ccc(-c3cccc(C(=O)Nc4ccccc4CC(=O)O)c3)cc2)CC1`, for which, in data set [1], the logD turned out to be 0.5. In [2], the “log(permeability)” value is recorded as -5.5.
As for `O=C(Nc1ccccc1C(=O)O)c1cccc(-c2ccc(Cl)cc2)c1`, at Succinate receptor 1, the concentration for half-maximal inhibition (IC50) was found to be 23 µM. For the same molecule, the pH-dependent lipophilicity (logD) in data set [1] worked out at 3. The “log(permeability)” value in data set [2] is given as -3.7.
In the case of `O=C(O)Cc1ccccc1NC(=O)c1cccc(-c2ccc(Cl)c(O[C@@H]3CCCNC3)c2)c1F`, the fraction unbound at 4 h, 5 µM in data set [7] was 0.04; in [8], 0.026. Besides, in [2], the “log(permeability)” value is -5.3. Further, in [4], the bioavailability is 46%. For the same molecule, the AUC/dose in data set [5] turned out to be 1437 nmol·h/L. This molecule registered a clearance in [6] of 11 mL/min/kg.
On to `NCc1cccc(-c2cccc(COc3ccccc3CC(=O)O)c2)c1`, for which, on Succinate receptor 1, the IC50 is over 100 µM. Moreover, in data set [2], the “log(permeability)” value is -4.5. In addition, the pKa in data set [9] was determined as 4.4; in [10] it was 9.4. Also, in [14], the bioavailability was over 100%. Moreover, the AUC/dose in data set [11] was found to be 3646 nmol·h/L.
`O=C(O)C[C@@H](NC(=O)c1cccc(-c2ccc(Cl)cc2)c1)c1cccnc1`: the inhibition result in data set [15] is “inactive”.
As for `O=C(O)C[C@H](NC(=O)c1cccc(-c2ccc(Cl)cc2)c1)c1cccnc1`, at Succinate receptor 1, the half-maximal inhibitory concentration (IC50) was 12 µM. In data set [1], this molecule displayed a logD of 1.3. In addition, the “log(permeability)” value in data set [2] is -5.3.
Take `NCCOc1cc(-c2cccc(C(=O)Nc3ccccc3CC(=O)O)c2)ccc1Cl`: the log distribution coefficient (logD) in data set [1] was 2.8. For the same molecule, in data set [2], the “log(permeability)” value is -5.4.
Take `NCc1cc(-c2cccc(C(=O)Nc3ccccc3CC(=O)O)c2)ccc1Cl`: in data set [7], the fraction unbound at 4 h, 5 µM was 0.021. In addition, the IC50 on Succinate receptor 1 is 0.3 µM; at Complement factor D it was over 100 µM; at Coagulation factor XI, 5.8 µM. This molecule came in with a logD in [1] of 2.1. Besides, the “log(permeability)” value in data set [2] is given as -5.3.
On to `O=C(O)Cc1ccccc1NC(=O)c1cccc(-c2ccc(Cl)c(OC3CCCNC3)c2)c1` (configuration not stated), for which the IC50 at Succinate receptor 1 was 0.52 µM. In data set [1], the logD was determined as 3.6. The “log(permeability)” value in data set [2] was -4.4. The pKa in [9] stood at 4.1; in data set [10] it was 9.4.
